One experiment addresses T1, bombesin/GRP receptor (Mus musculus, UniProt P21729).
T1 construct: endogenous in cells; host or cells: Swiss 3T3 murine fibroblasts (intact, quiescent/confluent)
As to conditions: Swiss 3T3 cells; ref Zachary & Rozengurt, 1985a; cited from earlier work. From the text: Br. J. Cancer (1988), 57, 579-586 ? The Macmillan Press Ltd., 1988 Bombesin and bombesin antagonists: Studies in Swiss 3T3 cells and human small cell lung cancer* P.J. Woll & E. Rozengurt Imperial Cancer Research Fund, PO Box 123, Lincoln's Inn Fields, London WC2A 3PX, UK.

In the next experiment the test system is H69 SCLC cell line. Nature of the experiment: Growth of H69 SCLC cell line in serum-free HITES medium (Coulter counter). The format is cell-based, human. As to conditions: peptide A at 150 pM (so in the source), HITES medium + 0.25% bovine serum albumin, inoculum 5 x 10^4 cells, mean of 3; restored by washing; Figure 3 left.
A further experiment deals with Ca2+ mobilization. As to conditions: Swiss 3T3 cells; ref Mendoza et al., 1986; cited from earlier work. From the text: (§1) Br. J. Cancer (1988), 57, 579-586 ? The Macmillan Press Ltd., 1988 Bombesin and bombesin antagonists: Studies in Swiss 3T3 cells and human small cell lung cancer* P.J. Woll & E. Rozengurt Imperial Cancer Research Fund, PO Box 123, Lincoln's Inn Fields, London WC2A 3PX, UK. Summary Bombesins are potent growth factors for murine Swiss 3T3 cells. Using these cells in chemically defined conditions we have been able to characterise the bombesin receptor and the early signals preceding DNA synthesis. We describe two substance P analogues [DArg1, DPro2, DTrp7 9, Leu1 ] substance P and [DArg1, DPhe5, ...

The next experiment has as its system EGF receptor. To be noted: Swiss 3T3 cells; ref Zachary et al., 1986; cited from earlier work.
Source text: as §1

Experiment [1] has as its system GRP-stimulated mitogenesis in Swiss 3T3 cells. To be noted: ref Zachary & Rozengurt, 1985a; cited from earlier work.
Source text: as §1

Experiment [2] concerns the target T2, Mr 75,000-85,000 protein component of the bombesin/GRP receptor (Mus musculus, UniProt P21729).
T2 construct: endogenous in cells; host or cells: Swiss 3T3 murine fibroblasts (intact, quiescent/confluent)
As to conditions: Swiss 3T3 cells; ref Zachary & Rozengurt, 1987a; cited from earlier work.
Source text: as §1

The next experiment deals with Na+/K+ pump. To be noted: Swiss 3T3 cells; ref Mendoza et al., 1986; cited from earlier work.
Source text: as §1

The subject of experiment [3] is Swiss 3T3 cells. To be noted: ref Zachary & Rozengurt, 1985a; cited from earlier work.
Source text: as §1

The subject of experiment [4] is c-fos and c-myc expression. As to conditions: Swiss 3T3 cells; ref Rozengurt & Sinnett-Smith, 1987; cited from earlier work.
Source text: as §1

Experiment [5] has as its system protein kinase C (80K phosphorylation). As to conditions: Swiss 3T3 cells; ref Zachary et al., 1986; cited from earlier work.
Source text: as §1

The subject of experiment [6] is vasopressin-stimulated DNA synthesis in Swiss 3T3 cells. To be noted: ref Zachary & Rozengurt, 1986, Corps et al., 1985; cited from earlier work.
Source text: as §1

The next experiment has as its system pancreatic acinar cells. To be noted: ref Jensen et al., 1984; cited from earlier work.
Experiment [7] relates to Swiss 3T3 cells. Set-up: method as in 2 sources, one per row (each row's own in cited_ref): ref Rozengurt & Sinnett-Smith, 1983 ||| ref Zachary & Rozengurt, 1985a. As to conditions: serum-free medium, cited from earlier work.

pEC50: −log10 of the molar value. Where two headings read alike, the source gives them in different places.

The source of these data is paper PMC2246472, “Bombesin and bombesin antagonists: studies in Swiss 3T3 cells and human small cell lung cancer” (British Journal of Cancer, 1988).

T1 sequence (P21729 whole entry): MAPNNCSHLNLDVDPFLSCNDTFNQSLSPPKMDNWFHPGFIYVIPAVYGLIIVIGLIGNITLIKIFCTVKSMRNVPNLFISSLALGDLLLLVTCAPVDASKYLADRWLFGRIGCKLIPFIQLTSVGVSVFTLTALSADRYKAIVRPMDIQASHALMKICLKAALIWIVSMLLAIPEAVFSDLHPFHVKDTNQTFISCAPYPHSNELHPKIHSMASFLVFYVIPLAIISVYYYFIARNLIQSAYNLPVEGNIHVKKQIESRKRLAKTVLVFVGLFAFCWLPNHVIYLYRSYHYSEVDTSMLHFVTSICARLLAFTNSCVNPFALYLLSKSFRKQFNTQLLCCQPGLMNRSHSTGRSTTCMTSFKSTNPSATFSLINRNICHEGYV
T2 sequence (P21729 whole entry): as above

With `CCCC(=O)O[C@@H]1[C@@H](C)[C@@]2(O)[C@@H](C=C(CO)C[C@]3(O)C(=O)C(C)=C[C@@H]23)[C@@H]2C(C)(C)[C@]12OC(=O)CCC` [PBt2, phorbol 12,13, dibutyrate, reference compound], the “inhibition of [125I]GRP binding by other mitogens and neuropeptides” value (from here on “inhibition of [125I]GRP binding”) at bombesin/GRP receptor is recorded as “not inhibited”.
For “Arg Pro Lys Pro Gln Gln Phe Phe Gly Leu Met NH2 [substance P, tachykinin with minimal structural homology with bombesin, reference compound]”, in the experiment with bombesin/GRP receptor, the “inhibition of [125I]GRP binding” value is recorded as “not inhibited”.
As to “DArg Dpro Lys Pro Gln Gln DTrp Phe DTrp Leu Leu NH2 [peptide A, [DArg1, DPro2, DTrp7,9, Leu11] substance P]”, in the experiment with H69 SCLC cell line, the “effect on growth of H69 cells” value is “suppressed”. Also, the “effect on [125I]GRP binding (Table III)” value on bombesin/GRP receptor is on record as “reversibly blocks”. Besides, the “effect on Ca2+ mobilization (Table III)” value with Ca2+ mobilization is “reversibly blocks”. The “effect on EGF transmodulation (Table III)” value in the experiment with EGF receptor is given as “reversibly blocks”. The “effect on stimulation of DNA synthesis by bombesin-like peptides (Table III)” value in experiment [1] was “reversibly blocks”. Further, in experiment [2], the “effect on cross-linking of [125I]GRP to the Mr 75,000-85,000 glycoprotein (Table III)” value is on record as “reversibly blocks”. Moreover, the “effect on activation of Na+/K+ pump (Table III)” value in the experiment with Na+/K+ pump is “reversibly blocks”. In addition, the “effect on DNA synthesis stimulated by PDGF, EGF, phorbol esters and c-AMP-increasing agents (Table III)” value in the experiment with Swiss 3T3 cells [3] is “is not affected”. Besides, the “effect on increase in c-fos and c-myc expression (Table III)” value in experiment [4] is “reversibly blocks”. Moreover, the “effect on 80K phosphorylation (Table III)” value in experiment [5] is “reversibly blocks”. Further, the “effect on stimulation of DNA synthesis by vasopressin (Table III)” value in [6] is “reversibly blocks”. For the same compound, in the experiment with pancreatic acinar cells, the “effect on secretory effects of bombesin in pancreatic acinar cells” value was “block the secretory effects of bombesin”.
EGF: epidermal growth factor: the “inhibition of [125I]GRP binding” value in the experiment with bombesin/GRP receptor was “not inhibited”.
On to PDGF, for which the “inhibition of [125I]GRP binding” value at bombesin/GRP receptor is given as “not inhibited”.
With insulin, the “inhibition of [125I]GRP binding” value in the experiment with bombesin/GRP receptor is “not inhibited”.
“pGlu Gin Arg Leu Gly Asn Gin Trp Ala Val Gly His Leu Met NH2 [bombesin, tetradecapeptide first isolated from amphibian skin]”: the pEC50 in the experiment on Swiss 3T3 cells [7] (absence of other growth-promoting agents, ref Rozengurt & Sinnett-Smith, 1983, read-out: bombesin concentration giving half-maximal effect on DNA synthesis) was 9.00; in the experiment with Swiss 3T3 cells [7] (in the presence of insulin, ref Zachary & Rozengurt, 1985a, read-out: bombesin concentration required to produce a half-maximal response (DNA synthesis) with insulin), 9.52.
With “vasoactive intestinal peptide [VIP, reference compound]”, in the experiment with bombesin/GRP receptor, the “inhibition of [125I]GRP binding” value is “not inhibited”.
Turning to vasopressin [reference compound], the “inhibition of [125I]GRP binding” value with bombesin/GRP receptor is recorded as “not inhibited”.
